2 compounds from PMC8329502 (Toxicology Reports, 2021) can be followed below.

The target in this series is T1, cytochrome P450 1A2 (CYP1A2) (Homo sapiens, UniProt P05177).
T1 sequence (P05177 2-516): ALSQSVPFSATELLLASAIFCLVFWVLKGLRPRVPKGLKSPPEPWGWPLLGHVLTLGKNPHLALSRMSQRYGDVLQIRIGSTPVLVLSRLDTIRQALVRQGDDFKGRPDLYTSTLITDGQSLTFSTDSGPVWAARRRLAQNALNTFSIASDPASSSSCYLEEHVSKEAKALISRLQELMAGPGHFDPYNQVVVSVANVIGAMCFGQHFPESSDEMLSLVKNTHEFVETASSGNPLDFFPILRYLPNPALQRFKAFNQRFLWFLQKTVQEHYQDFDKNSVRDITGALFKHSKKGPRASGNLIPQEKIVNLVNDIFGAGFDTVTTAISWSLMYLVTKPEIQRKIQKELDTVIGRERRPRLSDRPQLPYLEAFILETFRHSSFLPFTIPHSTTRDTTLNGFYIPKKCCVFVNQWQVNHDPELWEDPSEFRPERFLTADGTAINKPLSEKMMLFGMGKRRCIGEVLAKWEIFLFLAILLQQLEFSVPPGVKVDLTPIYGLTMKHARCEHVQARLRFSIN
The series can be described thus: […]-caffeine 3-N-demethylation in 50-donor pooled human liver microsomes. Format: biochemical.

`COc1c2ccoc2cc2oc(=O)ccc12` [5-MOP, 5-methoxypsoralen] displayed an IC50 of 68.8 nM.
For the compound `COc1c2ccoc2c(OC)c2oc(=O)ccc12` [ISOP, isopimpinellin], the 50% inhibitory concentration (IC50) came to 277 nM.

For orientation: IC50 means the concentration that gives 50% inhibition. Read a low IC50 as greater potency in that assay.
